The source of these data is BindingDB's records for doi:10.1021/acs.biochem.6b00786 (University of California Irvine, 2016).

In test [1] the target is Nitric oxide synthase oxygenase [E25A,E26A,I218V,E316A] (Bacillus subtilis, UniProt O34453, E25A/E26A/E316A/I218V). Kind of test: bBiDomain assay. On the procedure:
(§1) Reactions were carried out using the buffered solution reported for the three-component reaction. The bBiDomain reactions included 100 nm bBiDomain and either YumC or FLDR at 1 μm; except for reactions in which YumC concentrations were varied. For inhibition assays, inhibitors were added at 30 μm. Similar to the three-component reaction, bBiDomain reactions were initiated with NADPH at a final concentration of 400 μm, quenched by thermal denaturation, and analyzed by Griess reaction.

The target in test [2] is Nitric oxide synthase oxygenase [E25A,E26A,E316A] (Bacillus subtilis, UniProt O34453, E25A/E26A/E316A). The test can be described thus: bBiDomain assay. On the procedure: as §1

Broadly, the IC50 is the concentration that gives 50% inhibition. On to `Cc1cc(N)nc2ccccc12`, for which the values for the IC50 in test [1] and in test [2] were 53.3 µM and 36.6 µM, respectively.
